We go through ten compounds from ChEMBL document CHEMBL1127722, “Aminophosphonic acid containing inhibitors of human collagenase: modification of the P1 residue” (Bioorg Med Chem Lett, 1994).

Where only a bound is given, the exact number is not on record here.

This test deals with T1, Interstitial collagenase (Homo sapiens, UniProt P03956).
T1 sequence (P03956 whole entry): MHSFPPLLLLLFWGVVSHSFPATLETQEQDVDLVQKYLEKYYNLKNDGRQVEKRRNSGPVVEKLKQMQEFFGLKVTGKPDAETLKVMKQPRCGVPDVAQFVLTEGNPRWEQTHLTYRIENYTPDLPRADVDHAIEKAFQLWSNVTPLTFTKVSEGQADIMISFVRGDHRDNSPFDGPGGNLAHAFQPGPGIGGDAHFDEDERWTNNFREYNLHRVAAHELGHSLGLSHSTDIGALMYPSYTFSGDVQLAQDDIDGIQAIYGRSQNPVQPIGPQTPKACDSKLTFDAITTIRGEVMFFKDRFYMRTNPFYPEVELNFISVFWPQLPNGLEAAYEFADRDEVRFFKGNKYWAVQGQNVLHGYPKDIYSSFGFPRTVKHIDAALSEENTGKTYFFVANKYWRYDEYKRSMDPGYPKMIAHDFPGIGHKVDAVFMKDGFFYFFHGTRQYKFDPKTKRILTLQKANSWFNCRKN
Briefly: Inhibition of human fibroblast collagenase.
As a reminder, the IC50 is the concentration needed to halve the response being measured. A higher IC50 goes with lower potency. For the compound `CNC(=O)[C@H](Cc1ccccc1)NC(=O)[C@H](CC(C)C)NC(CCN1C(=O)c2ccccc2C1=O)P(=O)(O)O` (stereo not given in full), it took 360 nM to reach half-maximal inhibition (IC50). For `CNC(=O)[C@H](CC(C)C)NC(=O)[C@H](CC(C)C)CP(=O)(O)CNC(C)=O`, 37000 nM corresponded to half-maximal inhibition (IC50). With `CNC(=O)[C@H](Cc1ccccc1)NC(=O)[C@H](CC(C)C)N[C@@H](CCN1C(=O)c2cccc3c(Br)ccc(c23)C1=O)P(=O)(O)O` the figure was 20 nM. The value for `CNC(=O)[C@H](Cc1ccccc1)NC(=O)[C@H](CC(C)C)NC(CN1C(=O)c2cccc3cccc(c23)C1=O)P(=O)(O)O` (stereo not given in full) was 2120 nM; that for `CNC(=O)[C@H](Cc1ccccc1)NC(=O)[C@H](CC(C)C)NC(CCCN1C(=O)c2cccc3cccc(c23)C1=O)P(=O)(O)O` (stereo not given in full) was 730 nM. The value for `CNC(=O)[C@H](Cc1ccccc1)NC(=O)[C@H](CC(C)C)N[C@H](CCN1C(=O)c2cccc3cccc(c23)C1=O)P(=O)(O)O` was 150 nM; that for `CNC(=O)[C@H](Cc1ccccc1)NC(=O)[C@H](CC(C)C)NC(CCN1C(=O)c2cccc3cccc(c23)C1=O)[PH](=O)O` (stereo not given in full) was more than 100000 nM. In turn, `CNC(=O)[C@H](Cc1ccccc1)NC(=O)[C@H](CC(C)C)N[C@@H](CCN1C(=O)c2ccccc2C1=O)P(=O)(O)O` came in with a half-maximal inhibitory concentration (IC50) of 190 nM.

Compound `CNC(=O)[C@H](Cc1ccccc1)NC(=O)[C@H](CC(C)C)N[C@H](CCN1C(=O)c2cccc3c(Br)ccc(c23)C1=O)P(=O)(O)O` gave an IC50 of 1630 nM. The value for `CNC(=O)[C@H](Cc1ccccc1)NC(=O)[C@H](CC(C)C)N[C@@H](CCN1C(=O)c2cccc3cccc(c23)C1=O)P(=O)(O)O` was 30 nM.
